Bounds are passed on as bounds.

The nature of one data set: Plasma stability assay. The format is in vitro ADME. As to conditions: human plasma, 37° C., read-out: Human plasma t1/2. On the procedure: (§1) 3 μM test compound was incubated in Human or Mouse plasma (BioIVT) at 37° C. with aliquots (100 μL) removed at 0, 15, 30, 60, 120, and 240 minutes. Enzymatic activity was quenched at each time point with the addition of 200 μL of acetonitrile containing 2 μM internal standard (d5-7-ethoxy coumarin), immediately vortexed and centrifuged at 15,000 rpm for 25 min at 4° C. Supernatants were transferred to autosampler vials for LC-MS/MS analysis. LC-MS/MS analysis was performed using Agilent Infinity II 1260 HPLC coupled to a G6460C QQQ MS. Half-lives were determined by plotting ln of % test compound remaining versus time and performing linear regression to determine the slope. Slope=−k and t½=0.693/k for first order kinetics.

Another data set has as its target GABAA α1β2γ2 (Homo sapiens, UniProt P14867+P47870). As to the kind of experiment: GABAA electrophysiology, PAM mode, SyncroPatch automated patch clamp. The format is cell-based. As to conditions: for Emax: read-out: GABAA α1β2γ2 Maximum Potentiation. The method, then:
(§2) The SyncroPatch assay is performed at room temperature. A fast application protocol is used, in which the ligand is rapidly applied and then removed from the cell. To test for PAM mode, the agonist (GABA EC20) is applied three times as a control and to show reproducibility, followed by a minimum 2-minute pre-incubation of client compound and then re-application of agonist (GABA EC20) in the presence of client compound. Finally, a saturating concentration of agonist is applied. A steady-state voltage pulse at −80 mV is applied throughout the assay. Compounds are prepared as 10 mM DMSO stocks.
(§3) Automated patch clamp-recordings are performed using the SyncroPatch 384i. The voltage protocol generation and data collection are performed with Patch Controller 384 V2.2.1 and Data Controller V2.3.0. The PAM activity is calculated using the following equation, [(Icomp/Ireference)−1], where Icomp is the current amplitude in the presence of the compound and Ireference is the current amplitude in the presence of GABA alone. This builds an activation concentration-response curve (CRC), where <0.2 represents no PAM activity and >0.2 represents PAM activity. If a “bell-shape curve” is observed at the higher concentrations, showing a reduction in activity in comparison to previous concentrations, then to allow for a more accurate curve fit, these concentrations are removed from the graphs where necessary and noted in the results table.

The next data set has as its target GABAA α4β3δ (Homo sapiens, UniProt P28472+P48169). The data set is described as above. The format is cell-based. As to conditions: for Emax: read-out: GABAA α4β3δ Maximum Potentiation; for selectivity for GABAA receptor containing the delta (δ) subunit compared to a GABAA receptor without it: α4β3δ vs α1β2γ2, in words. On the procedure: as §2, §3
The next data set in a line: Aqueous solubility. The following applies: water.
A short description of data set [1]: Aqueous stability assay in PBS (DPBS), HPLC. The following applies: 1 mg/mL, room temperature, parent remaining at 2 hr, read-out: PBS (% REM at 2 hr). The format is physicochemical. The method, then: Aqueous stability experiments were performed on an Agilent 1100 HPLC equipped with an Agilent 1200 autosampler. HPLC grade solvents were exclusively used during analysis, with acetonitrile being purchased from Sigma Aldrich, and water and formic acid provided by Fisher Scientific. Sample solutions were prepared in 2.0 mL large opening RAM™ vials from Chemglass using DPBS as the aqueous medium.
Tested compounds were dissolved in DPBS at a standard concentration of 1 mg/mL. All mixtures were then sonicated for 5 min or stirred until complete dissolution was achieved. Any precipitate observed in sample solutions was filtered with a PTFE syringe filter prior to analysis. Immediately after sample preparation, injection by the HPLC autosampler was performed, which was recorded as the initial time point (t=0 min). Samples were then kept in the autosampler at room temperature and injected at designated intervals without additional filtration or sample modification. Next, the area of the parent peak in each chromatogram was determined by automated integration in the Agilent ChemStation software. Pseudo first-order half-lives were then ascertained by calculating the percent of the parent compound remaining after each time point, Plots of time (x-axis) vs. the natural logarithm of percent parent remaining (y-axis) were subsequently constructed to determine the slope. Finally, the aqueous stability was evaluated using the following equation: […]
The HPLC conditions were as follows: injection volume, 1 μL; column temperature: 40° C.; detector: 254 nm; stationary phase: Zorbax Eclipse XDB-C18 (4.6×150 mm, 5 μm); flow rate: 1 mL/min; mobile phase: 80-95% acetonitrile in H2O (0.1% formic acid).

The nature of data set [2]: Microsomal stability assay. As to conditions: Human Liver Microsomes, 37° C., unit in cell hr (head: min), read-out: HLM t1/2. The format is in vitro ADME. On the procedure:
as §1, with “Liver Microsomes (Xenotech)” for “or Mouse plasma (BioIVT)”, “[…])” for “μL)”, “0, 5, 10,” for “0,”, “15,” for “15, 30, 60, 120,”, “30” for “240”

Sequence of GABAA α1β2γ2 (P14867 28-456): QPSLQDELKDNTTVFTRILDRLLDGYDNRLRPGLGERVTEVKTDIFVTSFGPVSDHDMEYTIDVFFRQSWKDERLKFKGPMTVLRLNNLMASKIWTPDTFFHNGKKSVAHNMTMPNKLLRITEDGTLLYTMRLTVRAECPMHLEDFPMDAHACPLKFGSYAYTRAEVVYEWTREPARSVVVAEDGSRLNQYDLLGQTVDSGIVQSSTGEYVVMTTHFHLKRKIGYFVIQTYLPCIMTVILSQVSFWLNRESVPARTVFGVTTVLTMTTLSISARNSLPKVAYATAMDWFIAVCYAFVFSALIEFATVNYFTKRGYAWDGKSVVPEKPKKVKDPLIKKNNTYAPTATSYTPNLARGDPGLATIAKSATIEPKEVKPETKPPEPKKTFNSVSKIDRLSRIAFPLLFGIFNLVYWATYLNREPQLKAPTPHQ
Sequence of GABAA α1β2γ2 (P47870 25-512 limits assumed): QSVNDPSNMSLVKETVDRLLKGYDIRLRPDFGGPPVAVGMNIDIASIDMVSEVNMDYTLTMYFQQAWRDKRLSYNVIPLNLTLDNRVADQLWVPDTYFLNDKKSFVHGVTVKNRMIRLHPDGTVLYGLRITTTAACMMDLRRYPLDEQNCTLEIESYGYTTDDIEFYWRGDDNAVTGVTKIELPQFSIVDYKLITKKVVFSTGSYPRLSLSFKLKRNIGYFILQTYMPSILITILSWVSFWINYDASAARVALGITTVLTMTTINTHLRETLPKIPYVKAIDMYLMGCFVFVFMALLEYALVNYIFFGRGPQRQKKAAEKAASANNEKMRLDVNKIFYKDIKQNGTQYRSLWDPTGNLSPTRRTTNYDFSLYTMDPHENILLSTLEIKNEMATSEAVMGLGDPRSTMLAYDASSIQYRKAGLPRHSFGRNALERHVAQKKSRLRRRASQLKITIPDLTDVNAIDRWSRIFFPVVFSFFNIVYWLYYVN
Sequence of GABAA α1β2γ2 (P18507 40-475 partner): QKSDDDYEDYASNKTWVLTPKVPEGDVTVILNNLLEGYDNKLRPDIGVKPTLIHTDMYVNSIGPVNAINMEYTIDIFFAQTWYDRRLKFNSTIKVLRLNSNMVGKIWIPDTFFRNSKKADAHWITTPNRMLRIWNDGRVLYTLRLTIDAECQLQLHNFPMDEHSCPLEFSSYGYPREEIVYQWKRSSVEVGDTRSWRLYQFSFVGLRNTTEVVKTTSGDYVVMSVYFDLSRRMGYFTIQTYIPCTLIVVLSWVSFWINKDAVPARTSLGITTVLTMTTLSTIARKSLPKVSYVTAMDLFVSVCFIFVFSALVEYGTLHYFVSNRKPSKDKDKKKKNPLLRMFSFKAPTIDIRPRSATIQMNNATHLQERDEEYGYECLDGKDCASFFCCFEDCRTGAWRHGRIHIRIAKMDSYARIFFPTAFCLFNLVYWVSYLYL
Sequence of GABAA α4β3δ (P48169 36-554): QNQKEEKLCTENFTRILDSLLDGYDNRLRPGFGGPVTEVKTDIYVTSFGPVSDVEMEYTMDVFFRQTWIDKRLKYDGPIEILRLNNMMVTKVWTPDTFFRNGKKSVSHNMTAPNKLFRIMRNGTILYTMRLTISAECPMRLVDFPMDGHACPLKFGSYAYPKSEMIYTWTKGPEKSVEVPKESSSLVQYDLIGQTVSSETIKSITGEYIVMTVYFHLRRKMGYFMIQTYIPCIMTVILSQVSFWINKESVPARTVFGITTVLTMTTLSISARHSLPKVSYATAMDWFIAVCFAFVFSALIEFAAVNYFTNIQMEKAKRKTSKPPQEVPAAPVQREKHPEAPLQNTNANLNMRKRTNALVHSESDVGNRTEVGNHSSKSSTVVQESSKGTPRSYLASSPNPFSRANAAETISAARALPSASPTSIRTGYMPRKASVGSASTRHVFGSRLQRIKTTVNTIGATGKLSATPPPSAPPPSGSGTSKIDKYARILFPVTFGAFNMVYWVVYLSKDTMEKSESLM
Sequence of GABAA α4β3δ (P28472 26-473): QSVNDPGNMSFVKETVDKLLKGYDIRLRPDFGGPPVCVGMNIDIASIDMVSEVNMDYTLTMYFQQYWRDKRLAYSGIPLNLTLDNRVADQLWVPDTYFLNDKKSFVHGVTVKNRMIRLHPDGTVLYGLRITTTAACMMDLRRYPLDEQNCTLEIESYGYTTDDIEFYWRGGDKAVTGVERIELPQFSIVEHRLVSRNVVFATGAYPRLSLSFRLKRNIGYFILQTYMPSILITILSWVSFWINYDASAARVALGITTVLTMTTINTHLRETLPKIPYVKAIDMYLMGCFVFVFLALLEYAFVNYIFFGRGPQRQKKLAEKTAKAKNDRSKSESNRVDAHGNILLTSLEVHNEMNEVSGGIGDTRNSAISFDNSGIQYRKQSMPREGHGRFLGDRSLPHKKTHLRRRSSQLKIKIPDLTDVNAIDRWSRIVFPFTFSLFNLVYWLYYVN
Sequence of GABAA α4β3δ (O14764 17-452 partner limits assumed): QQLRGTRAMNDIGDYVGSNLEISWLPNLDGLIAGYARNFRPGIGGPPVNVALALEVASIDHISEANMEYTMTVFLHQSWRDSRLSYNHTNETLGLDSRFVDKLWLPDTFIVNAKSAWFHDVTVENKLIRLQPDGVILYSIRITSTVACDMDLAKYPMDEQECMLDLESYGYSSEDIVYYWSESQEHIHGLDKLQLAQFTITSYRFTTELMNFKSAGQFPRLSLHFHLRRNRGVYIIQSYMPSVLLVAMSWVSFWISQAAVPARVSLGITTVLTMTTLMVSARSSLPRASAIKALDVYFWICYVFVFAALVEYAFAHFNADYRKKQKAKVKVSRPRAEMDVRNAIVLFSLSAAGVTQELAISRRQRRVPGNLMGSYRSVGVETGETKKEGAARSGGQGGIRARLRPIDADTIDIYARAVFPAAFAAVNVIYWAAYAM

With `C/C(=N\O)[C@H]1CC[C@H]2[C@@H]3CC[C@@H]4C[C@](C)(O)CC[C@@H]4[C@H]3CC[C@]12C` [LEH- NEURO- 007 (30), (E)-1-((3R,5R,8R,9R,10S,13S,14S,17S)-3-hydroxy-3,13-dimethylhexadecahydro-1H-cyclopenta[a]phenanthren-17-yl)ethan-1-one oxime], the half-life at 3 µM in the data set “Plasma stability assay” (unit in cell hr (head: min)) is above 240 min. At GABAA α1β2γ2, it took 692 nM to reach a half-maximal effect (EC50) and the Emax was found to be 121%. For the same compound, at GABAA α4β3δ, the EC50 stood at 383 nM, the Emax came to 510% and the “selectivity for GABAA receptor containing the delta (δ) subunit compared to a GABAA receptor without it” value is “selectively potentiate”.

With `C/C(=N\OCOP(=O)(O)O)[C@H]1CC[C@H]2[C@@H]3CCC4C[C@](C)(O)CC[C@]4(C)[C@H]3CC[C@]12C` (stereo partly drawn) [GP-GAN- 007 (22), 1,3-Dihydroxy-2-(hydroxymethyl)propan-2-aminium ((((E)-1-((3R,8R,9S,10S,13S,14S,17S)-3-hydroxy-3,10,13-trimethylhexadecahydro-1H-cyclopenta[a]phenanthren-17-yl)ethylidene)amino)oxy)methyl hydrogen phosphate], the solubility in the data set “Aqueous solubility” is above 1000 µM.

With `C/C(=N\OC(=O)N(C)C[C@@H]1CCCN1)[C@H]1CC[C@H]2[C@@H]3CCC4C[C@](C)(O)CC[C@]4(C)[C@H]3CC[C@]12C.Cl` (stereo partly drawn) [GP-GAN- 003 (20b), (E)-1-((3R,8R,9S,10S,13S,14S,17S)-3-hydroxy-3,10,13-trimethylhexadecahydro-1H-cyclopenta[a]phenanthren-17-yl)ethan-1-one O-(methyl(((S)-pyrrolidin-2-yl)methyl)carbamoyl) oxime hydrochloride], in data set [1], the remaining at 2 h amounted to 10%. The half-life at 3 µM in “Plasma stability assay” is 6 min. Moreover, the solubility in the data set “Aqueous solubility” is above 750 µM.

Consider `C/C(=N\O)[C@H]1CC[C@H]2[C@@H]3CCC4C[C@](C)(O)CC[C@]4(C)[C@H]3CC[C@]12C` (stereo partly drawn) [compound 10], for which, on GABAA α4β3δ, the “selectivity for GABAA receptor containing the delta (δ) subunit compared to a GABAA receptor without it” value was “selectively potentiate”.

As for `CNCCN(C(=O)O/N=C(\C)[C@H]1CC[C@H]2[C@@H]3CCC4C[C@](C)(O)CC[C@]4(C)[C@H]3CC[C@]12C)C(C)C.Cl` (stereo partly drawn) [GP-GAN- 004 (20d), (E)-1-((3R,8R,9S,10S,13S,14S,17S)-3-hydroxy-3,10,13-trimethylhexadecahydro-1H-cyclopenta[a]phenanthren-17-yl)ethan-1-one O-(isopropyl(2-(methylamino)ethyl)carbamoyl) oxime hydrochloride], the remaining at 2 h in data set [1] amounted to 52%. Besides, in “Plasma stability assay”, the half-life at 3 µM was 28 min. Further, in “Aqueous solubility”, the solubility is above 750 µM.

`CNCCN(C)C(=O)O/N=C(\C)[C@H]1CC[C@H]2[C@@H]3CCC4C[C@](C)(O)CC[C@]4(C)[C@H]3CC[C@]12C.Cl` (stereo partly drawn) [GP-GAN- 002 (20a), (E)-1-((3R,8R,9S,10S,13S,14S,17S)-3-hydroxy-3,10,13-trimethylhexadecahydro-1H-cyclopenta[a]phenanthren-17-yl)ethan-1-one O-(methyl(2-(methylamino)ethyl)carbamoyl) oxime hydrochloride]: the remaining at 2 h in data set [1] amounted to 66%. Besides, the half-life at 3 µM in “Plasma stability assay” amounted to 55 min. For the same compound, the solubility in the data set “Aqueous solubility” was above 750 µM.

In the case of `C/C(=N\O)[C@H]1CC[C@H]2[C@@H]3CC[C@H]4C[C@](C)(O)CC[C@]4(C)[C@H]3CC[C@]12C` [GP-GAN- 001 (10), (E)-1-((3R,8R,9S,10S,13S,14S,17S)-3-hydroxy-3,10,13-trimethylhexadecahydro-1H-cyclopenta[a]phenanthren-17-yl)ethan-1-one oxime], the results for the half-life at 3 µM (in data set [2]; in “Plasma stability assay” (unit in cell hr (head: min))) were above 120 min and above 240 min, respectively. In addition, the EC50 was 1620 nM at GABAA α1β2γ2 and 1000 nM on GABAA α4β3δ. Besides, the Emax on GABAA α1β2γ2 came to 133%; at GABAA α4β3δ, 533%.

With `C/C(=N\O)[C@@]1(F)CC[C@H]2[C@@H]3CC[C@H]4C[C@](C)(O)CC[C@]4(C)[C@H]3CC[C@@]21C` [GP-GAN- 006 (15), (E)-1-((3R,8R,9S,10S,13S,14S,17R)-17-fluoro-3-hydroxy-3,10,13-trimethylhexadecahydro-1H-cyclopenta[a]phenanthren-17-yl)ethan-1-one oxime], the remaining at 2 h in data set [1] is 61%. The half-life at 3 µM in “Plasma stability assay” was found to be 3 min.

As to `CNCCN(C(=O)O/N=C(\C)[C@H]1CC[C@H]2[C@@H]3CCC4C[C@](C)(O)CC[C@]4(C)[C@H]3CC[C@]12C)C1CCC1.Cl` (stereo partly drawn) [GP-GAN- 005 (20c), (E)-1-((3R,8R,9S,10S,13S,14S,17S)-3-hydroxy-3,10,13-trimethylhexadecahydro-1H-cyclopenta[a]phenanthren-17-yl)ethan-1-one O-(cyclobutyl(2-(methylamino)ethyl)carbamoyl) oxime hydrochloride], the remaining at 2 h in data set [1] is 43%. Moreover, the half-life at 3 µM in the data set “Plasma stability assay” worked out at 39 min. Besides, the solubility in the data set “Aqueous solubility” was above 750 µM.

Consider `CC(=O)[C@H]1CC[C@H]2[C@@H]3CC[C@H]4C[C@](C)(O)CC[C@]4(C)[C@H]3CC[C@]12C` [Ganaxalone, Ganaxolone, reference compound], for which the EC50 on GABAA α1β2γ2 came to 540 nM; at GABAA α4β3δ it was 879 nM.

The values above are taken from patent US20260285897A1, “Neurosteroids and Prodrugs Thereof” (Emory University, priority 2023, published 2026).
